Tests used:
[1] = target: T1, M3 muscarinic receptor subtype (hM3) (Homo sapiens, UniProt P20309); assay: Radioligand binding assay ([3H]-NMS displacement, CHO cell membranes); details: [3H]-NMS 1 nM, 60 minutes at 37° C.
T1 construct: expressed in transfected cells
Experimental: A. Membrane Preparation from Cells Expressing hM1, hM2, hM3 and hM4 Muscarinic Receptor Subtypes
CHO cell lines stably expressing cloned human hM1, hM2, hM3 and hM4 muscarinic receptor subtypes, respectively, were grown to near confluency in medium consisting of HAM's F-12 supplemented with 10% FBS and 250 μg/mL Geneticin. The cells were grown in a 5% CO2, 37° C. incubator and lifted with 2 mM EDTA in dPBS. Cells were collected by 5 minute centrifugation at 650×g, and cell pellets were either stored frozen at −80° C. or membranes were prepared immediately. For membrane preparation, cell pellets were resuspended in lysis buffer and homogenized with a Polytron PT-2100 tissue disrupter (Kinematica AG; 20 seconds×2 bursts). […] The protein concentration of the membrane suspension was determined by the method described in Lowry, O. et al., […] 193:265 (1951). […]
Radioligand binding assays were performed in 96-well microtiter plates in a total assay volume of 100 μL. […] Filter plates were rinsed three times with wash buffer (10 mM HEPES) to remove unbound radioactivity. […] The plates were then counted in a PerkinElmer Topcount liquid scintillation counter (PerkinElmer Inc., Wellesley, Mass.). Binding data were analyzed by nonlinear regression analysis with the GraphPad Prism Software package (GraphPad Software, Inc., San Diego, Calif.) using the one-site competition model. […]

hM2 receptor = target: T2, hM2 receptor (Homo sapiens, UniProt P08172); assay: Blockade of agonist-mediated [35S]GTPγS binding; format: biochemical; details: CHO-K1 cells expressing the hM2 receptor (membranes); read-out: Ki value for blockade of oxotremorine-stimulated [35S]GTPγS binding
T2 construct: expressed in transfected cells; host or cells: CHO-K1 cells
T2 sequence (P08172 1-466): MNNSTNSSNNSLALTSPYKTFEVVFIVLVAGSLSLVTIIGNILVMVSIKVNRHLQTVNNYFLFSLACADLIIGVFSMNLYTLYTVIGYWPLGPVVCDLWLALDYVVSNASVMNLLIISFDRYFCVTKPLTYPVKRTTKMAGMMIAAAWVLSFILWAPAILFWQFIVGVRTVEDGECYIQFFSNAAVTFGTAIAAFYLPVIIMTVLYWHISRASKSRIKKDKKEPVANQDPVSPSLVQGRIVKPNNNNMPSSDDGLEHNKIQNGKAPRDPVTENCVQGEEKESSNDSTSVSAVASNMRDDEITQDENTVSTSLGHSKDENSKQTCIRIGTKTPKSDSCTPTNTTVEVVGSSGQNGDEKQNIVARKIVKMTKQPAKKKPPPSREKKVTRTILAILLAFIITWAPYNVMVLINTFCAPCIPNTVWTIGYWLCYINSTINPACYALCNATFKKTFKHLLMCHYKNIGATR
Experimental: B. Blockade of Agonist-Mediated [^35 S]GTPγS Binding
In a second functional assay, the functional potency of a test compound is determined by measuring the ability of the compound to block oxotremorine-stimulated [^35S]GTPγS binding in CHO-K1 cells expressing the hM2 receptor.
At the time of use, frozen membranes were thawed and then diluted in assay buffer with a final target tissue concentration of 5-10 μg protein per well. The membranes were briefly homogenized using a Polytron PT-2100 tissue disrupter and then added to the assay plates.
The EC90 value (effective concentration for 90% maximal response) for stimulation of [^35S]GTPγS binding by the agonist oxotremorine was determined in each experiment.
The assay plates were then incubated at 37° C. for 60 minutes. The assay plates were filtered over 1% BSA-pretreated GF/B filters using a PerkinElmer 96-well harvester. The plates were rinsed with ice-cold wash buffer for 3×3 seconds and then air or vacuum dried. Microscint-20 scintillation liquid (50 μL) was added to each well, and each plate was sealed and radioactivity counted on a topcounter (PerkinElmer). Data were analyzed by nonlinear regression analysis with the GraphPad Prism Software package (GraphPad Software, Inc., San Diego, Calif.) using the non-linear regression, one-site competition equation. […]

T1 sequence (P20309 whole entry): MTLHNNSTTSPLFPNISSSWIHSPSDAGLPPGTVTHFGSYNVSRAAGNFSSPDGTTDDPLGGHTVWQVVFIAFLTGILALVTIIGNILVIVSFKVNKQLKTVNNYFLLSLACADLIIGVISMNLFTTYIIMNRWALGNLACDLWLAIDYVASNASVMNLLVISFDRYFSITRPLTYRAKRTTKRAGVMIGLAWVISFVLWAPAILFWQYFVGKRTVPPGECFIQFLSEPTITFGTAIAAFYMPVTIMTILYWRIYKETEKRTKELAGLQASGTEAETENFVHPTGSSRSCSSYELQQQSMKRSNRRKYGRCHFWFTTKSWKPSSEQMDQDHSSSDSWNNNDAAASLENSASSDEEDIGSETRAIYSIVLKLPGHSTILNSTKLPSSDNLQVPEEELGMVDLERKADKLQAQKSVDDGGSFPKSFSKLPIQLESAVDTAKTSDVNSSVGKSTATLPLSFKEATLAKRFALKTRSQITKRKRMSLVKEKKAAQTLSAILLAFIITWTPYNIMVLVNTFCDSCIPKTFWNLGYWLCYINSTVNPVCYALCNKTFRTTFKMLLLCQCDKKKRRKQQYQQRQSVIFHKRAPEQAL

SMILES: CNCCCCCCCCN1CC[C@@H](C(C(N)=O)(c2ccccc2)c2ccccc2)C1 [compound of formula I, 2-[(S)-1-(8-methylaminooctyl)pyrrolidin-3-yl]-2,2-diphenylacetamide]
- Ki [1]: ~960 pM
- Ki (hM2 receptor): < 5000 pM

From patent US7524880B2, “Crystalline form of a substituted pyrrolidine compound” (Theravance, Inc., priority 2004, dated 2009)
